In ChEMBL document CHEMBL1151933, “Identification of a disruptor of the MDM2-p53 protein-protein interaction facilitated by high-throughput in silico docking” (Bioorg Med Chem Lett, 2009):

Key:
[1] = Inhibition of GST-tagged MDM2 (1-150) / full-length His6-tagged p53 interaction expressed in Escherichia coli by alphascreen assay
[2] = Inhibition of GST-tagged MDM2/His6-tagged p53 interaction by ELISA
[3] = Inhibition of GST-tagged MDM2/His6-tagged p53 interaction at 100 uM by ELISA

| IC50 [1] [µM] | IC50 [2] [µM] | inhibition [3] [%] | Compound |
| --- | --- | --- | --- |
| 13 | – | – | c1ccc(/C(=N/Nc2nc3ccccc3s2)c2ccccn2)cc1.c1ccc(/C(=N\Nc2nc3ccccc3s2)c2ccccn2)cc1 (mixture of isomers; form 1) |
| 25 | 20 | – | c1ccc(/C(=N/Nc2nc3ccccc3s2)c2ccccn2)cc1.c1ccc(/C(=N\Nc2nc3ccccc3s2)c2ccccn2)cc1 (mixture of isomers; form 2) [listing 1 of 2 here] |
| – | – | > 50 | c1ccc(/C(=N/Nc2nc3ccccc3s2)c2ccccn2)cc1.c1ccc(/C(=N\Nc2nc3ccccc3s2)c2ccccn2)cc1 (mixture of isomers; form 2) [listing 2 of 2 here] |
| 0.25 | – | – | COc1ccc(C2=N[C@@H](c3ccc(Cl)cc3)[C@@H](c3ccc(Cl)cc3)N2C(=O)N2CCNC(=O)C2)c(OC(C)C)c1 [NUTLIN-3] |
